Reference: patent US6900019B1, “In-situ cell extraction and assay method” (Amersham Biosciences UK Limited, priority 1997, dated 2005)

Biological target: T1, Interleukin-6 / anti-IL-6 antibody binding (Homo sapiens, UniProt P05231)
T1 construct: purchased Amersham RPN 2754
Test: IL-6 ELISA standard curves with lysis reagent and sequestrant
Conditions: 1% DTAB in standards
Experimental: Working standards (10.24400 pg/ml IL-6) were prepared in polypropylene tubes using assay buffer containing 1% (w/v) DTAB. The biotinylated antibody was prepared in buffer containing 3% (w/v) alpha-cyclodextrin. 50 μl of biotinylated antibody (containing cyclodextrin) was added to the anti-IL-6 coated plate. 50 μl of working standard and cell lysate was pipetted into separate wells of the anti-IL-6 coated plate. Non-specific binding was measured in the absence of IL-6 (zero IL-6 standard). The order of addition of biotinylated antibody and samples/standards is not critical to the procedure. […] The optical density was determined with a microtitre plate spectrophotometer set at 450 nm. Interleukin-6 levels were determined using log/linear analysis with reference to a standard curve. […]
(§1) Interleukin-6 standards (10.24-400 pg/ml) were prepared in standard diluent either in the presence (□) or absence (●) of lysis reagent (1% w/v DTAB). […] The plate was incubated for 2 hours at room temperature, and the optical density measured as described under the methods section.
as §1

T1 sequence (P05231 30-212): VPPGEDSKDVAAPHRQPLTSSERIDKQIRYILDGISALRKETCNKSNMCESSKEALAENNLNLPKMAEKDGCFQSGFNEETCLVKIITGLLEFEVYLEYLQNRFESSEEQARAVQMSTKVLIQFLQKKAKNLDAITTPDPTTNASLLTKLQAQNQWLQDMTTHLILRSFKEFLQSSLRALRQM

| antibody binding in the IL-6 ELISA (3% (w/v) alpha-cyclodextrin in biotinylated antibody) | SMILES | antibody binding in the IL-6 ELISA (zero cyclodextrin) |
| --- | --- | --- |
| Binding was restored | OC[C@H]1O[C@@H]2O[C@H]3[C@H](O)[C@@H](O)[C@@H](O[C@H]4[C@H](O)[C@@H](O)[C@@H](O[C@H]5[C@H](O)[C@@H](O)[C@@H](O[C@H]6[C@H](O)[C@@H](O)[C@@H](O[C@H]7[C@H](O)[C@@H](O)[C@@H](O[C@H]1[C@H](O)[C@H]2O)O[C@@H]7CO)O[C@@H]6CO)O[C@@H]5CO)O[C@@H]4CO)O[C@@H]3CO [CD, alpha-cyclodextrin] |  |
|  | CCCCCCCCCCCC[N+](C)(C)C.[Br-] [DTAB, dodecyl trimethyl ammonium bromide] | inhibition of antibody binding |
